Values after ≈ are worked out from the molar mass of the structure shown. Active and inactive are the calls of the source. No cut-off for these calls is given here.
Columns and labels:
[1] = system: HepG2; experiment: Cytotoxicity against human HepG2 cells assessed as inhibition of cell growth at 30 uM incubated for 40 hrs by celltiterglo assay; format: functional
[2] = molecular target: Voltage-gated inwardly rectifying potassium channel KCNH2 (Homo sapiens, UniProt Q12809); experiment: Inhibition of hERG; format: toxicity; conditions: human
Sequence of Voltage-gated inwardly rectifying potassium channel KCNH2 (Q12809 whole entry): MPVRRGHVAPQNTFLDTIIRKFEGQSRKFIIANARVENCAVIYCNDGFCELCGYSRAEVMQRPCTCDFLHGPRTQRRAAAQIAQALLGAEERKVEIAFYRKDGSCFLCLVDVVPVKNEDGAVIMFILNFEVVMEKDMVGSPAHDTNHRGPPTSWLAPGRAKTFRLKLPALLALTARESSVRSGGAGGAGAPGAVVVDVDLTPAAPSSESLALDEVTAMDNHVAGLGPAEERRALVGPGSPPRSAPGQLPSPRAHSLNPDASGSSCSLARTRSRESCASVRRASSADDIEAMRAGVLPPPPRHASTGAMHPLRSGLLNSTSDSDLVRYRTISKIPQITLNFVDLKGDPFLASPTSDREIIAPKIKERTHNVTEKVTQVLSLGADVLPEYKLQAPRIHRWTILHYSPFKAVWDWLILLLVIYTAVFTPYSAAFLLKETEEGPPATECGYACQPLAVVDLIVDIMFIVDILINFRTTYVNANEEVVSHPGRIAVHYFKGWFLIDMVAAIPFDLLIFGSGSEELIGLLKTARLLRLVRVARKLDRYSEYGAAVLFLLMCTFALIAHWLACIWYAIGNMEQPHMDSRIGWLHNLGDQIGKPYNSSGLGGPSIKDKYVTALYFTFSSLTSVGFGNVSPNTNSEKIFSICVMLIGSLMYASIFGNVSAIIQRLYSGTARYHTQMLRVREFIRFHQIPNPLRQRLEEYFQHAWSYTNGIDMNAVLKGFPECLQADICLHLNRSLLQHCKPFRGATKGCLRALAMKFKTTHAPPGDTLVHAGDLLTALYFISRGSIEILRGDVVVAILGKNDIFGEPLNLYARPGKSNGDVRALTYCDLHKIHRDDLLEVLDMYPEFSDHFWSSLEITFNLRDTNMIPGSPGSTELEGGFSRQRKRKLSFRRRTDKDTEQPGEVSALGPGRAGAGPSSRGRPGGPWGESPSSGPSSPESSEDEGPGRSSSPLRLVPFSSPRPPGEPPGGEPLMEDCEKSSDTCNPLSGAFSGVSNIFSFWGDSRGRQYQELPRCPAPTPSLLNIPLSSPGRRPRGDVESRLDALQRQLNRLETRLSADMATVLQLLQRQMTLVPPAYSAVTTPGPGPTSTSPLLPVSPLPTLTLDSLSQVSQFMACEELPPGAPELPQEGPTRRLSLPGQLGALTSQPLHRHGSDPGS

[3] = Metabolic stability in mouse kidney assessed as parent compound remaining measured after 4 hrs by UPLC-MS analysis; format: ADME, tissue-based; conditions: read-out: Stability
[4] = Metabolic stability in mouse lung assessed as parent compound remaining measured after 1 hrs by UPLC-MS analysis; format: ADME, tissue-based; conditions: mouse lung, read-out: Stability
[5] = Metabolic stability in mouse kidney assessed as parent compound remaining measured after 1 hrs by UPLC-MS analysis; format: ADME, tissue-based; conditions: read-out: Stability
[6] = system: Escherichia coli; experiment: Antibacterial activity against Escherichia coli ATCC 35218 infected in Swiss albino mouse model of Septicaemia infection assessed as log reduction in Septicaemia in blood at 1 mg/kg , iv preincubated for 4 hrs followed by bacterial infection and measured after 4 hrs post infection; format: functional; conditions: time 8 hrs
[7] = system: Escherichia coli; experiment: Antibacterial activity against wild type Escherichia coli ATCC 35218 assessed as reduction in microbial growth incubated for 20 to 22 hrs by CLSI based analysis; format: functional; conditions: time 20-22 hrs
[8] = system: Escherichia coli; experiment: Antibacterial activity against Escherichia coli ATCC 35218 harboring SbmA assessed as reduction in microbial growth incubated for 20 to 22 hrs by CLSI based analysis; format: functional; conditions: time 20-22 hrs
[9] = system: Klebsiella pneumoniae; experiment: Antibacterial activity against wild type Klebsiella pneumoniae ATCC 13883 assessed as reduction in microbial growth incubated for 20 to 22 hrs by CLSI based analysis; format: functional; conditions: time 20-22 hrs
[10] = system: Klebsiella pneumoniae; experiment: Antibacterial activity against Klebsiella pneumoniae ATCC 13883 harboring SbmA assessed as reduction in microbial growth incubated for 20 to 22 hrs by CLSI based analysis; format: functional; conditions: time 20-22 hrs
[11] = Toxicity in Swiss albino mouse at 10 mg/kg, iv measured after 1 hr; format: organism-based; conditions: in vivo
[12] = system: Escherichia coli; experiment: Antibacterial activity against multidrug-resistant Escherichia coli BAA2469 assessed as bacterial growth inhibition incubated for 20 to 22 hrs by CLSI based analysis; format: functional; conditions: time 20-22 hrs
[13] = system: Escherichia coli; experiment: Antibacterial activity against multidrug-resistant Escherichia coli UT189 assessed as bacterial growth inhibition incubated for 20 to 22 hrs by CLSI based analysis; format: functional; conditions: time 20-22 hrs
[14] = system: Escherichia coli; experiment: Antibacterial activity against multidrug-resistant Escherichia coli IR45 assessed as bacterial growth inhibition incubated for 20 to 22 hrs by CLSI based analysis; format: functional; conditions: time 20-22 hrs
[15] = system: Klebsiella pneumoniae; experiment: Antibacterial activity against […] assessed as bacterial growth inhibition incubated for 20 to 22 hrs by CLSI based analysis; format: functional; conditions: time 20-22 hrs
[16] = system: Klebsiella pneumoniae; experiment: Antibacterial activity against multidrug-resistant Klebsiella pneumoniae G199 assessed as bacterial growth inhibition incubated for 20 to 22 hrs by CLSI based analysis; format: functional; conditions: time 20-22 hrs
[17] = system: Klebsiella pneumoniae; experiment: Antibacterial activity against multidrug-resistant Klebsiella pneumoniae B817 assessed as bacterial growth inhibition incubated for 20 to 22 hrs by CLSI based analysis; format: functional; conditions: time 20-22 hrs
[18] = system: Klebsiella pneumoniae; experiment: Antibacterial activity against multidrug-resistant Klebsiella pneumoniae NR-48977 assessed as bacterial growth inhibition incubated for 20 to 22 hrs by CLSI based analysis; format: functional; conditions: time 20-22 hrs
[19] = system: Pseudomonas aeruginosa; experiment: Antibacterial activity against multidrug-resistant Pseudomonas aeruginosa PAO1 assessed as bacterial growth inhibition incubated for 20 to 22 hrs by CLSI based analysis; format: functional; conditions: time 20-22 hrs
[20] = system: Proteus mirabilis; experiment: Antibacterial activity against multidrug-resistant Proteus mirabilis ATCC 7002 assessed as bacterial growth inhibition incubated for 20 to 22 hrs by CLSI based analysis; format: functional; conditions: time 20-22 hrs
[21] = system: Citrobacter freundii; experiment: Antibacterial activity against multidrug-resistant Citrobacter freundii ATCC 8090 assessed as bacterial growth inhibition incubated for 20 to 22 hrs by CLSI based analysis; format: functional; conditions: time 20-22 hrs
[22] = system: Providencia stuartii; experiment: Antibacterial activity against multidrug-resistant Providencia stuartii ATCC 49809 assessed as bacterial growth inhibition incubated for 20 to 22 hrs by CLSI based analysis; format: functional; conditions: time 20-22 hrs
[23] = system: Acinetobacter baumannii; experiment: Antibacterial activity against multidrug-resistant Acinetobacter baumannii R831 assessed as bacterial growth inhibition incubated for 20 to 22 hrs by CLSI based analysis; format: functional; conditions: time 20-22 hrs
[24] = system: Staphylococcus aureus; experiment: Antibacterial activity against multidrug-resistant Staphylococcus aureus ATCC 33592 assessed as bacterial growth inhibition incubated for 20 to 22 hrs by CLSI based analysis; format: functional; conditions: time 20-22 hrs
[25] = Aqueous solubility of compound at pH 4.5; format: physicochemical; conditions: buffer
[26] = Aqueous solubility of compound at pH 5.5; format: physicochemical; conditions: buffer
[27] = Protein binding in human plasma assessed as free fraction; format: ADME, cell-free
[28] = Ratio of drug concentration in mouse blood to plasma; format: ADME, cell-free
[29] = Cmax in Swiss mouse kidney at 3 mg/kg, iv measured upto 24 hrs by LC-MS/MS analysis; format: ADME, organism-based; set-up: dose 3 mg/kg, time < 24 hrs, route iv
[30] = Cmax in Swiss mouse lung at 3 mg/kg, iv measured upto 24 hrs by LC-MS/MS analysis; format: ADME, organism-based; set-up: time < 24 hrs, dose 3 mg/kg, route iv
[31] = AUClast in Swiss mouse Kidney at 3 mg/kg, iv measured upto 24 hrs by LC-MS/MS analysis; format: ADME, organism-based; set-up: dose 3 mg/kg, time < 24 hrs, route iv
[32] = AUClast in Swiss mouse Lung at 3 mg/kg, iv measured upto 24 hrs by LC-MS/MS analysis; format: ADME, organism-based; set-up: time < 24 hrs, dose 3 mg/kg, route iv
[33] = Observed clearance Swiss mouse at 3 mg/kg, iv measured upto 24 hrs by LC-MS/MS analysis; format: ADME, organism-based; conditions: in vivo
[34] = Volume of distribution at steady state in Swiss mouse at 3 mg/kg, iv measured upto 24 hrs by LC-MS/MS analysis; format: ADME, organism-based; conditions: in vivo, read-out: Vdss
[35] = Drug excretion in urine of Swiss mouse at 3 mg/kg, iv measured upto 24 hrs by LC-MS/MS analysis; format: ADME, organism-based; conditions: read-out: Drug excretion
[36] = Cytotoxicity against human HEK cells assessed as inhibition of cell growth at 30 uM incubated for 40 hrs by celltiterglo assay; format: toxicity, cell-based
[37] = system: THP-1; experiment: Cytotoxicity against human THP-1 cells assessed as inhibition of cell growth at 30 uM incubated for 40 hrs by celltiterglo assay; format: functional, cell-based
[38] = Ratio of AUC in Lung to plasma in Swiss mouse at 3 mg/kg, iv measured upto 24 hrs by LC-MS/MS analysis; format: ADME, organism-based; conditions: read-out: Ratio AUC
[39] = Ratio of AUC in kidney to plasma in Swiss mouse at 3 mg/kg, iv measured upto 24 hrs by LC-MS/MS analysis; format: ADME, organism-based; conditions: read-out: Ratio AUC
[40] = system: Escherichia coli; experiment: Antibacterial activity against Escherichia coli ATCC 25922 infected in Swiss albino mouse model of Septicaemia infection assessed as log reduction in Septicaemia in blood at 0.1 to 10 mg/kg , iv preincubated for 4 hrs followed by bacterial infection and measured after 4 hrs post infection; format: functional; conditions: dose 0.1-10 mg/kg, time 8 hrs
[41] = system: Escherichia coli; experiment: Antibacterial activity against Escherichia coli UT189 infected in Swiss albino mouse model of urinary tract infection assessed as log reduction in bacteremia in urine at 10 mg/kg, iv pre-infected with bacteria for 24 hrs followed by compound treatment for every 24 hrs for 3 days; format: functional; conditions: time 3 day
[42] = system: Escherichia coli; experiment: Antibacterial activity against Escherichia coli UT189 infected in Swiss albino mouse model of urinary tract infection assessed as log reduction in bacteremia in bladder at 10 mg/kg, iv pre-infected with bacteria for 24 hrs followed by compound treatment for every 24 hrs for 3 days; format: functional; conditions: time 3 day

For `CO[C@@H](CNC(=O)[C@H](NC(=O)[C@H](O)[C@H](C)O)[C@H](O)c1cncn1C)[C@H](O)[C@H](O)C(=O)N(C)[C@@H](Cc1ccccc1)C(=O)NCC(=O)N[C@H](C(=O)N[C@@H](CO)C(=O)N[C@H](C(=O)N[C@H](C(=O)N[C@@H](CC(=O)O)C(=O)N1CCC[C@H]1C(=O)NCc1cc(=O)c(O)cn1O)C(C)(C)C)C(C)(C)O)C(C)(C)O`, the Activity [1] was “inactive”, the “inhibition (INH)” value [2] was “Not Active” and the remaining at 4 h [3] was 91%. For the same compound, the remaining at 1 h [4] was 100%, the remaining at 1 h [5] was 103% and the Activity [6] was -3.8 log10CFU. For the same compound, the MIC [7] was 0.01 µg/mL, the MIC [8] was 0.12 µg/mL and the MIC [9] was 0.03 µg/mL. The MIC [10] was 16 µg/mL, the Activity [11] was “Non-Toxic” and the MIC [12] was 0.06 µg/mL (≈ 0.0415 µM). It also gave an MIC [13] of 0.01 µg/mL (≈ 0.00691 µM), an MIC [14] of 2 µg/mL (≈ 1.38 µM) and an MIC [15] of 0.06 µg/mL (≈ 0.0415 µM). For the same compound, the MIC [16] was 0.06 µg/mL (≈ 0.0415 µM), the MIC [17] was 0.03 µg/mL (≈ 0.0207 µM) and the MIC [18] was 4 µg/mL (≈ 2.76 µM). For the same compound, the MIC [19] was greater than 32 µg/mL, the MIC [20] was 0.12 µg/mL (≈ 0.0829 µM) and the MIC [21] was 2 µg/mL (≈ 1.38 µM). It also gave an MIC [22] of 0.06 µg/mL (≈ 0.0415 µM), an MIC [23] of 2 µg/mL (≈ 1.38 µM) and an MIC [24] of 4 µg/mL (≈ 2.76 µM). For the same compound, the solubility [25] was 8100 µg/mL (≈ 5600 µM), the solubility [26] was 9100 µg/mL (≈ 6290 µM) and the fraction unbound [27] was 0.26. For the same compound, the blood plasma ratio [28] was 4.5, the Cmax [29] was 14200 ng/mL and the Cmax [30] was 2420 ng/mL. For the same compound, the AUC(0-t) at 24 h [31] was 7150 ng·h/mL, the AUC(0-t) at 24 h [32] was 1010 ng·h/mL and the clearance [33] was 13.5 mL/min/kg. The Vd [34] was 0.25 L/kg, the dose excreted at 24 h [35] was 65% and the Activity [36] was “Non-Toxic”. For the same compound, the Activity [37] was “inactive”, the Kp at 24 h [38] was 0.4 and the Kp at 24 h [39] was 2.5. For the same compound, the “log(activity)” value [40] was 3, the “log(activity)” value [41] was 4.7 and the “log(activity)” value [42] was 3.1.

— ChEMBL document CHEMBL5356971, “Optimization of the Antibacterial Spectrum and the Developability Profile of the Novel-Class Natural Product Corramycin” (J Med Chem, 2023)
